Laboratory results reported in PubChem BioAssay AID2060488 (Molecular Pharmacology Branch, DTP, NCI, 2025).

Tested on: 966289-007-R4-J1-PDC complex spheroid viability
Assay: Anticancer human tumor 966289-007-R4-J1-PDC patient-derived pancreatic adenocarcinoma cell line growth inhibition [GQUAD]
Settings: for IC50: curve of first compound; for viability, T/C: stronger effect = lower value
Procedure, shortened: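 Multi-cell-type spheroids of tumor cells with HUVEC and mesenchymal stem cells, treated with drug combinations. Concentrations descend in half-log steps from near clinical Cmax, or from 10 microM where Cmax is unknown; viability read-out.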

[1] = second compound 0.0316 µM, first compound 0.0316 µM
[2] = second compound 0.0316 µM, first compound 0.1 µM
[3] = second compound 0.0316 µM, first compound 0.316 µM
[4] = second compound 0.0316 µM, first compound 1 µM
[5] = second compound 0.0316 µM, first compound 3.16 µM
[6] = second compound 0.0316 µM, first compound 10 µM
[7] = second compound 0.1 µM, first compound 0.0316 µM
[8] = second compound 0.1 µM, first compound 0.1 µM
[9] = second compound 0.1 µM, first compound 0.316 µM
[10] = second compound 0.1 µM, first compound 1 µM
[11] = second compound 0.1 µM, first compound 3.16 µM
[12] = second compound 0.1 µM, first compound 10 µM
[13] = second compound 0.316 µM, first compound 0.0316 µM
[14] = second compound 0.316 µM, first compound 0.1 µM
[15] = second compound 0.316 µM, first compound 0.316 µM
[16] = second compound 0.316 µM, first compound 1 µM
[17] = second compound 0.316 µM, first compound 3.16 µM
[18] = second compound 0.316 µM, first compound 10 µM
[19] = second compound 1 µM, first compound 0.0316 µM
[20] = second compound 1 µM, first compound 0.1 µM
[21] = second compound 1 µM, first compound 0.316 µM
[22] = second compound 1 µM, first compound 1 µM
[23] = second compound 1 µM, first compound 3.16 µM
[24] = second compound 1 µM, first compound 10 µM
[25] = second compound 3.16 µM, first compound 0.0316 µM
[26] = second compound 3.16 µM, first compound 0.1 µM
[27] = second compound 3.16 µM, first compound 0.316 µM
[28] = second compound 3.16 µM, first compound 1 µM
[29] = second compound 3.16 µM, first compound 3.16 µM
[30] = second compound 3.16 µM, first compound 10 µM
[31] = second compound 10 µM, first compound 0.0316 µM
[32] = second compound 10 µM, first compound 0.1 µM
[33] = second compound 10 µM, first compound 0.316 µM
[34] = second compound 10 µM, first compound 1 µM
[35] = second compound 10 µM, first compound 3.16 µM
[36] = second compound 10 µM, first compound 10 µM
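Also: spheroids exposed to the agents for seven days before readout.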
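For viability, T/C in this document: percent viability relative to DMSO vehicle control wells taken as 100%.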

CC1COCCN1c1cc(C2(S(C)(=N)=O)CC2)nc(-c2ccnc3[nH]ccc23)n1 (stereo unspecified) + Cc1cnc(CNC(=O)c2c(=O)c3ccc(N4CCCN(C)CC4)nc3n3c2sc2ccccc23)cn1
IC50 (second compound 0.0316 µM): 2700 nM
IC50 (second compound 0.1 µM): < 31.6 nM
IC50 (second compound 0.316 µM): < 31.6 nM
IC50 (second compound 1 µM): < 31.6 nM
IC50 (second compound 3.16 µM): < 31.6 nM
IC50 (second compound 10 µM): < 31.6 nM
viability, T/C [1]: 119%
viability, T/C [2]: 108%
viability, T/C [3]: 107%
viability, T/C [4]: 44.5%
viability, T/C [5]: 68.7%
viability, T/C [6]: 3.76%
viability, T/C [7]: 42.7%
viability, T/C [8]: 34.2%
viability, T/C [9]: 20.3%
viability, T/C [10]: 11.8%
viability, T/C [11]: 15.3%
viability, T/C [12]: 4.26%
viability, T/C [13]: 16.7%
viability, T/C [14]: 13.1%
viability, T/C [15]: 12.2%
viability, T/C [16]: 8.4%
viability, T/C [17]: 11.7%
viability, T/C [18]: 3.59%
viability, T/C [19]: 7.28%
viability, T/C [20]: 8.94%
viability, T/C [21]: 8.19%
viability, T/C [22]: 6.87%
viability, T/C [23]: 8.21%
viability, T/C [24]: 2.84%
viability, T/C [25]: 5.74%
viability, T/C [26]: 6.34%
viability, T/C [27]: 6.62%
viability, T/C [28]: 5.33%
viability, T/C [29]: 6.14%
viability, T/C [30]: 2.86%
viability, T/C [31]: 0.15%
viability, T/C [32]: 0.14%
viability, T/C [33]: 0.19%
viability, T/C [34]: 0.18%
viability, T/C [35]: 0.19%
viability, T/C [36]: 0.16%

O=c1[nH]cc(F)c(=O)[nH]1 + CN(C)c1ccc(Nc2c3ccc(NC(=O)CCN4CCCC4)cc3nc3cc(NC(=O)CCN4CCCC4)ccc23)cc1
IC50 (second compound 0.0316 µM): 205 nM
IC50 (second compound 0.1 µM): 209 nM
IC50 (second compound 0.316 µM): 208 nM
IC50 (second compound 1 µM): 206 nM
IC50 (second compound 3.16 µM): 213 nM
IC50 (second compound 10 µM): 195 nM
viability, T/C [1]: 104%
viability, T/C [2]: 103%
viability, T/C [3]: 18.4%
viability, T/C [4]: 6.28%
viability, T/C [5]: 5.63%
viability, T/C [6]: 6.35%
viability, T/C [7]: 103%
viability, T/C [8]: 113%
viability, T/C [9]: 17.7%
viability, T/C [10]: 7.05%
viability, T/C [11]: 5.04%
viability, T/C [12]: 6.55%
viability, T/C [13]: 105%
viability, T/C [14]: 109%
viability, T/C [15]: 17.5%
viability, T/C [16]: 7.23%
viability, T/C [17]: 5.77%
viability, T/C [18]: 6.78%
viability, T/C [19]: 103%
viability, T/C [20]: 107%
viability, T/C [21]: 17.5%
viability, T/C [22]: 6.91%
viability, T/C [23]: 5.6%
viability, T/C [24]: 5.8%
viability, T/C [25]: 101%
viability, T/C [26]: 106%
viability, T/C [27]: 22.2%
viability, T/C [28]: 8.51%
viability, T/C [29]: 5.41%
viability, T/C [30]: 5.54%
viability, T/C [31]: 93.8%
viability, T/C [32]: 103%
viability, T/C [33]: 14.6%
viability, T/C [34]: 4.55%
viability, T/C [35]: 3.52%
viability, T/C [36]: 3.2%

CC(C)n1c(=O)n(C)c2cnc3cc(F)c(-c4ccc(OCCCN5CCCCC5)nc4)cc3c21 + Cc1[nH]c2ccc(F)cc2c1-c1nc2c3cccnc3c3ncccc3c2[nH]1
IC50 (second compound 0.0316 µM): > 10000 nM
IC50 (second compound 0.1 µM): > 10000 nM
IC50 (second compound 0.316 µM): > 10000 nM
IC50 (second compound 1 µM): > 10000 nM
IC50 (second compound 3.16 µM): > 10000 nM
IC50 (second compound 10 µM): > 10000 nM
viability, T/C [1]: 112%
viability, T/C [2]: 101%
viability, T/C [3]: 110%
viability, T/C [4]: 101%
viability, T/C [5]: 109%
viability, T/C [6]: 82.4%
viability, T/C [7]: 104%
viability, T/C [8]: 101%
viability, T/C [9]: 109%
viability, T/C [10]: 105%
viability, T/C [11]: 110%
viability, T/C [12]: 89.1%
viability, T/C [13]: 99.8%
viability, T/C [14]: 110%
viability, T/C [15]: 106%
viability, T/C [16]: 111%
viability, T/C [17]: 105%
viability, T/C [18]: 85.9%
viability, T/C [19]: 104%
viability, T/C [20]: 108%
viability, T/C [21]: 109%
viability, T/C [22]: 109%
viability, T/C [23]: 109%
viability, T/C [24]: 85.5%
viability, T/C [25]: 102%
viability, T/C [26]: 107%
viability, T/C [27]: 110%
viability, T/C [28]: 104%
viability, T/C [29]: 105%
viability, T/C [30]: 62.2%
viability, T/C [31]: 103%
viability, T/C [32]: 104%
viability, T/C [33]: 107%
viability, T/C [34]: 104%
viability, T/C [35]: 94.9%
viability, T/C [36]: 61.8%
